Source: the NIST ThermoML archive (doi:10.1016/j.jct.2018.04.018)
Several values for one entry are separate records, joined by “and”; a condition that tells them apart may be missing. Equal entries are not always repeated.

Settings: 101.33 kPa, Liquid; for speed of sound: Single path-length method; for mass density: Vibrating tube method

CCCCCCCC[n+]1ccn(C)c1.F[P-](F)(F)(F)(F)F [1-octyl-3-methylimidazolium hexafluorophosphate]
Settings	viscosity
332.11 K, Cone and plate viscometry	101.6 mPa·s
332.85 K, Cone and plate viscometry	99.6 mPa·s and 99.3 mPa·s
333.15 K, Concentric cylinders viscometry	98.3 mPa·s
333.59 K, Cone and plate viscometry	95.7 mPa·s and 96 mPa·s
334.34 K, Cone and plate viscometry	92.5 mPa·s
334.35 K, Cone and plate viscometry	93 mPa·s
335.07 K, Cone and plate viscometry	89.7 mPa·s
335.09 K, Cone and plate viscometry	89.6 mPa·s
335.82 K, Cone and plate viscometry	86.7 mPa·s and 86.8 mPa·s
336.57 K, Cone and plate viscometry	84.1 mPa·s
337.31 K, Cone and plate viscometry	81.6 mPa·s and 81.7 mPa·s
338.05 K, Cone and plate viscometry	79.3 mPa·s
338.06 K, Cone and plate viscometry	78.8 mPa·s
338.79 K, Cone and plate viscometry	76.6 mPa·s
338.81 K, Cone and plate viscometry	76.2 mPa·s
339.54 K, Cone and plate viscometry	73.9 mPa·s and 74.2 mPa·s
340.28 K, Cone and plate viscometry	72 mPa·s
340.29 K, Cone and plate viscometry	71.9 mPa·s
341.03 K, Cone and plate viscometry	70 mPa·s
341.04 K, Cone and plate viscometry	69.8 mPa·s
341.77 K, Cone and plate viscometry	68 mPa·s and 68.1 mPa·s
342.51 K, Cone and plate viscometry	66.1 mPa·s and 66.6 mPa·s
343.15 K, Concentric cylinders viscometry	64.9 mPa·s
343.25 K, Cone and plate viscometry	64.1 mPa·s and 63.9 mPa·s
344 K, Cone and plate viscometry	62.2 mPa·s and 62 mPa·s
344.73 K, Cone and plate viscometry	60.4 mPa·s
344.76 K, Cone and plate viscometry	60.4 mPa·s
345.48 K, Cone and plate viscometry	58.8 mPa·s
345.51 K, Cone and plate viscometry	58.8 mPa·s
346.22 K, Cone and plate viscometry	57.2 mPa·s
346.29 K, Cone and plate viscometry	56.9 mPa·s
346.97 K, Cone and plate viscometry	55.4 mPa·s
347.05 K, Cone and plate viscometry	55.1 mPa·s
347.72 K, Cone and plate viscometry	53.8 mPa·s
347.81 K, Cone and plate viscometry	53.7 mPa·s
348.46 K, Cone and plate viscometry	52.4 mPa·s
348.57 K, Cone and plate viscometry	52.3 mPa·s
349.19 K, Cone and plate viscometry	51.1 mPa·s
349.33 K, Cone and plate viscometry	50.8 mPa·s
349.94 K, Cone and plate viscometry	49.7 mPa·s
350.07 K, Cone and plate viscometry	49.4 mPa·s
350.69 K, Cone and plate viscometry	48.3 mPa·s
350.77 K, Cone and plate viscometry	48.2 mPa·s
351.42 K, Cone and plate viscometry	47 mPa·s
351.48 K, Cone and plate viscometry	47.2 mPa·s
352.16 K, Cone and plate viscometry	46 mPa·s
352.22 K, Cone and plate viscometry	46.3 mPa·s
352.91 K, Cone and plate viscometry	45.1 mPa·s
352.99 K, Cone and plate viscometry	45.2 mPa·s
353.15 K, Concentric cylinders viscometry	44.7 mPa·s
353.66 K, Cone and plate viscometry	43.7 mPa·s
353.75 K, Cone and plate viscometry	44.3 mPa·s
354.39 K, Cone and plate viscometry	42.6 mPa·s
354.48 K, Cone and plate viscometry	43 mPa·s
355.14 K, Cone and plate viscometry	41.9 mPa·s
355.2 K, Cone and plate viscometry	42 mPa·s
355.88 K, Cone and plate viscometry	40.9 mPa·s
355.92 K, Cone and plate viscometry	41.3 mPa·s
356.63 K, Cone and plate viscometry	40.2 mPa·s
356.66 K, Cone and plate viscometry	40.5 mPa·s
357.36 K, Cone and plate viscometry	39 mPa·s
357.39 K, Cone and plate viscometry	39.2 mPa·s
358.1 K, Cone and plate viscometry	37.6 mPa·s
358.11 K, Cone and plate viscometry	38 mPa·s
358.85 K, Cone and plate viscometry	36.5 mPa·s
358.86 K, Cone and plate viscometry	37 mPa·s
359.6 K, Cone and plate viscometry	35.6 mPa·s and 36.5 mPa·s
360.35 K, Cone and plate viscometry	34.8 mPa·s and 35.7 mPa·s
361.08 K, Cone and plate viscometry	34.6 mPa·s
361.09 K, Cone and plate viscometry	35 mPa·s
361.82 K, Cone and plate viscometry	33.9 mPa·s and 34 mPa·s
362.57 K, Cone and plate viscometry	32.8 mPa·s
362.58 K, Cone and plate viscometry	32.5 mPa·s
363.15 K, Concentric cylinders viscometry	32.1 mPa·s
363.31 K, Cone and plate viscometry	32.1 mPa·s
363.32 K, Cone and plate viscometry	31.9 mPa·s
364.05 K, Cone and plate viscometry	31.3 mPa·s and 31.4 mPa·s
364.79 K, Cone and plate viscometry	31.1 mPa·s
364.8 K, Cone and plate viscometry	30.9 mPa·s
365.54 K, Cone and plate viscometry	29.7 mPa·s and 30.4 mPa·s
366.28 K, Cone and plate viscometry	29.6 mPa·s
366.29 K, Cone and plate viscometry	29.1 mPa·s
367.02 K, Cone and plate viscometry	28.7 mPa·s and 28.9 mPa·s
367.76 K, Cone and plate viscometry	27.9 mPa·s and 28.2 mPa·s
368.49 K, Cone and plate viscometry	27.6 mPa·s
368.51 K, Cone and plate viscometry	27.1 mPa·s
369.24 K, Cone and plate viscometry	27 mPa·s
369.26 K, Cone and plate viscometry	26.6 mPa·s
369.99 K, Cone and plate viscometry	26 mPa·s and 26.4 mPa·s
370.73 K, Cone and plate viscometry	25.4 mPa·s and 25.8 mPa·s
371.47 K, Cone and plate viscometry	25.2 mPa·s
371.49 K, Cone and plate viscometry	24.8 mPa·s
372.22 K, Cone and plate viscometry	24.8 mPa·s
372.23 K, Cone and plate viscometry	24.3 mPa·s
372.96 K, Cone and plate viscometry	24.3 mPa·s
372.97 K, Cone and plate viscometry	24.4 mPa·s
373.15 K, Concentric cylinders viscometry	24 mPa·s
373.71 K, Cone and plate viscometry	23.3 mPa·s and 23.7 mPa·s
374.44 K, Cone and plate viscometry	23.1 mPa·s
374.45 K, Cone and plate viscometry	22.9 mPa·s
375.19 K, Cone and plate viscometry	22.4 mPa·s and 22.6 mPa·s
375.94 K, Cone and plate viscometry	22.1 mPa·s and 22.3 mPa·s
376.68 K, Cone and plate viscometry	21.9 mPa·s
376.69 K, Cone and plate viscometry	22 mPa·s
377.41 K, Cone and plate viscometry	21.8 mPa·s
377.42 K, Cone and plate viscometry	21.6 mPa·s
378.16 K, Cone and plate viscometry	21.1 mPa·s
378.9 K, Cone and plate viscometry	20.7 mPa·s
378.91 K, Cone and plate viscometry	20.6 mPa·s
379.64 K, Cone and plate viscometry	20.3 mPa·s
379.65 K, Cone and plate viscometry	20.4 mPa·s
380.39 K, Cone and plate viscometry	19.7 mPa·s and 19.9 mPa·s
381.13 K, Cone and plate viscometry	19.6 mPa·s
381.14 K, Cone and plate viscometry	19.4 mPa·s
381.87 K, Cone and plate viscometry	19.2 mPa·s
381.88 K, Cone and plate viscometry	19 mPa·s
382.62 K, Cone and plate viscometry	18.5 mPa·s and 18.7 mPa·s
383.35 K, Cone and plate viscometry	18.2 mPa·s
383.36 K, Cone and plate viscometry	18.4 mPa·s
384.1 K, Cone and plate viscometry	18.2 mPa·s
384.11 K, Cone and plate viscometry	17.9 mPa·s
384.85 K, Cone and plate viscometry	17.7 mPa·s and 17.9 mPa·s
385.6 K, Cone and plate viscometry	17.4 mPa·s and 17.6 mPa·s
386.33 K, Cone and plate viscometry	16.8 mPa·s
386.34 K, Cone and plate viscometry	17 mPa·s
387.07 K, Cone and plate viscometry	16.6 mPa·s
387.08 K, Cone and plate viscometry	16.8 mPa·s
387.82 K, Cone and plate viscometry	16.5 mPa·s and 16.7 mPa·s
388.56 K, Cone and plate viscometry	16.6 mPa·s
388.57 K, Cone and plate viscometry	16.5 mPa·s
389.3 K, Cone and plate viscometry	16 mPa·s
389.32 K, Cone and plate viscometry	16.2 mPa·s
390.04 K, Cone and plate viscometry	15.8 mPa·s
390.05 K, Cone and plate viscometry	15.6 mPa·s
390.79 K, Cone and plate viscometry	15.3 mPa·s and 15.5 mPa·s
391.53 K, Cone and plate viscometry	15.4 mPa·s
391.54 K, Cone and plate viscometry	15.1 mPa·s
392.26 K, Cone and plate viscometry	14.7 mPa·s
392.28 K, Cone and plate viscometry	15.2 mPa·s
393.01 K, Cone and plate viscometry	14.6 mPa·s
393.02 K, Cone and plate viscometry	14.8 mPa·s
393.75 K, Cone and plate viscometry	14.5 mPa·s
393.76 K, Cone and plate viscometry	14.3 mPa·s
394.5 K, Cone and plate viscometry	14.3 mPa·s
394.51 K, Cone and plate viscometry	14.2 mPa·s
395.25 K, Cone and plate viscometry	14.1 mPa·s
395.26 K, Cone and plate viscometry	14 mPa·s
395.99 K, Cone and plate viscometry	13.9 mPa·s and 14 mPa·s
396.73 K, Cone and plate viscometry	13.7 mPa·s and 13.9 mPa·s
397.47 K, Cone and plate viscometry	13.5 mPa·s
397.48 K, Cone and plate viscometry	13.5 mPa·s
398.22 K, Cone and plate viscometry	13.2 mPa·s and 13.4 mPa·s
398.96 K, Cone and plate viscometry	13 mPa·s
398.97 K, Cone and plate viscometry	13.1 mPa·s
399.7 K, Cone and plate viscometry	12.9 mPa·s and 13 mPa·s
400.44 K, Cone and plate viscometry	12.9 mPa·s
400.45 K, Cone and plate viscometry	12.7 mPa·s
401.19 K, Cone and plate viscometry	12.6 mPa·s and 12.8 mPa·s
401.93 K, Cone and plate viscometry	12.3 mPa·s
401.94 K, Cone and plate viscometry	12.6 mPa·s
402.67 K, Cone and plate viscometry	12.2 mPa·s and 12.4 mPa·s
403.42 K, Cone and plate viscometry	12.1 mPa·s and 12.3 mPa·s
404.16 K, Cone and plate viscometry	12 mPa·s and 12.1 mPa·s
404.9 K, Cone and plate viscometry	11.7 mPa·s
404.91 K, Cone and plate viscometry	12 mPa·s
405.64 K, Cone and plate viscometry	11.5 mPa·s and 11.6 mPa·s
406.39 K, Cone and plate viscometry	11.3 mPa·s and 11.5 mPa·s
407.13 K, Cone and plate viscometry	11.2 mPa·s and 11.4 mPa·s
407.87 K, Cone and plate viscometry	11.3 mPa·s
407.88 K, Cone and plate viscometry	11.1 mPa·s
408.62 K, Cone and plate viscometry	10.6 mPa·s and 10.7 mPa·s
409.35 K, Cone and plate viscometry	10.4 mPa·s and 10.5 mPa·s
410.1 K, Cone and plate viscometry	10.3 mPa·s and 10.4 mPa·s
410.84 K, Cone and plate viscometry	10.3 mPa·s
410.85 K, Cone and plate viscometry	10.2 mPa·s
411.58 K, Cone and plate viscometry	10.1 mPa·s
411.59 K, Cone and plate viscometry	10.2 mPa·s
412.33 K, Cone and plate viscometry	10 mPa·s and 10.1 mPa·s
413.07 K, Cone and plate viscometry	9.6 mPa·s and 9.9 mPa·s
413.82 K, Cone and plate viscometry	9.6 mPa·s and 9.7 mPa·s

Settings	mass density	speed of sound [m/s]
333.15 K	1209.85 kg/m3 [middle of 4 runs]	1318.6
343.15 K	1202.43 kg/m3 [middle of 4 runs]	–
343.16 K	–	1296.1
353.15 K	1195.18 kg/m3 and 1195.41 kg/m3	–
363.15 K	1188.37 kg/m3 and 1188.53 kg/m3	–
373.15 K	1181.63 kg/m3	–
